Test results as given in US11203597B2, “Crystalline spirocyclic compound, a dosage form containing, a method for using in treatment of disease, and a method for recrystallizing” (Altavant Sciences GmbH, priority 2018, dated 2021).
In brackets after ≈: the same amount, converted by molar mass.

Columns and labels:
Format in all cases: physicochemical
[1] = Competitive slurry experiments in n-heptane (XRPD); settings: slurry in 10 volumes of n-heptane
Experimental: Competitive slurry experiments were performed to ascertain if Compound 1 samples of Form 1 and mixtures of Form 1 and Form 3 can be converted to Form 3. Pure Form 1 and Form 3 were also tested. First, 700 mg of Compound 1 were added in different ratios to 10 volumes of n-heptane and stirred for […] (Table 2). After 16 hours and four days, the samples were checked for polymorphic form by XRPD. […]

[2] = Stability of polymorph form by pH measurement when stirred in water
Experimental: Additional tests were performed to understand the differences between form 1 and 3. One of those tests was to check stability of polymorph form by pH measurement at several times when the different forms were stirred in water (Table 11). During the tests, any changes in polymorph form were checked.

[3] = Shake-flask solubility determination with stepwise addition of solvent
Excerpt: The method applied was a shake-flask solubility determination with stepwise addition of the solvent until complete dissolution is observed visually.

[4] = Solubility determination by HPLC
Excerpt: Because of the small differences in solubilities, HPLC was used to measure the solubilities. The values were conformed to the shake-flask results. […] In alcohol, there was a difference in dissolution rate. This difference was not observed for aqueous solutions.

[5] = Competitive slurry of Form 1 and Form 3 in MTBE/n-heptane mixtures (XRPD)
Excerpt: Compound 1 was also subjected to competitive slurry experiments between Compound 1, Form 1 and Compound 1, Form 3 in MTBE/n-heptane mixtures as summarized in Table 7 below.

[6] = Solubility of Compound 1 in organic solvents other than MTBE/n-heptane; settings: thermodynamic from solid
Experimental: Solubility and Form Measurement
The solubility of Compound 1 was evaluated in organic solvents other than MTBE/n-heptane mixtures. The form of the residual solids was examined by XRPD.

## CCOC(=O)[C@@H]1CC2(CCN(c3cc(O[C@H](c4ccc(Cl)cc4-c4ccccc4)C(F)(F)F)nc(N)n3)CC2)CN1 [ES928-60-2]
[1]
  XRPD 16 hours: Mixture 1
  XRPD 4 days: Form 3

## CCOC(=O)[C@@H]1CC2(CCN(c3cc(O[C@H](c4ccc(Cl)cc4-c4ccccc4)C(F)(F)F)nc(N)n3)CC2)CN1 [ES928-59-2]
[2]
  pH (2 hours): 8.26
  pH (4 hours): 7.75
  pH (7 hours): 7.76

## CCOC(=O)[C@@H]1CC2(CCN(c3cc(O[C@H](c4ccc(Cl)cc4-c4ccccc4)C(F)(F)F)nc(N)n3)CC2)CN1 [Form 1, (S)-ethyl 8-(2-amino-6-((R)-1-(5-chloro-[1,1′-biphenyl]-2-yl)-2,2,2-trifluoroethoxy)pyrimidin-4-yl)-2,8-diazaspiro[4.5]decane-3-carboxylate]
[1]
  XRPD 16 hours: remained as Form 1
  XRPD 4 days: slowly converts to Form 3
[3]; 2-methyl-tetrahydrofuran, organic solvent or mixture, thermodynamic from solid, 2-methyl-tetrahydrofuran, read-out: Solubility
  solubility: 97 to 970 mg/mL (≈ 164 to 1640 mM)
[3]; 2-propanol
  solubility: 98 to 980 mg/mL
[3]; I-propanol
  solubility: 101 to 1010 mg/mL
[3]; N,N-dimethyl-acetamide, organic solvent or mixture, thermodynamic from solid, N,N-dimethyl-acetamide, read-out: Solubility
  solubility: 96 to 960 mg/mL (≈ 163 to 1630 mM)
[3]; acetic acid
  solubility: 32 to 95 mg/mL
[3]; acetone, organic solvent or mixture, thermodynamic from solid, acetone, read-out: Solubility
  solubility: 96 to 960 mg/mL (≈ 163 to 1630 mM)
[3]; acetonitrile, organic solvent or mixture, thermodynamic from solid, acetonitrile, read-out: Solubility
  solubility: 99 to 990 mg/mL (≈ 168 to 1680 mM)
[3]; dimethyl sulfoxide, organic solvent or mixture, thermodynamic from solid, dimethyl sulfoxide, read-out: Solubility
  solubility: 101 to 1010 mg/mL (≈ 171 to 1710 mM)
[3]; ethanol
  solubility: 96 to 960 mg/mL
[3]; ethyl acetate, organic solvent or mixture, thermodynamic from solid, ethyl acetate, read-out: Solubility
  solubility: 101 to 1010 mg/mL (≈ 171 to 1710 mM)
[3]; formic acid 99%, organic solvent or mixture, thermodynamic from solid, formic acid 99%, read-out: Solubility
  solubility: 97 to 970 mg/mL (≈ 164 to 1640 mM)
[3]; isopropyl acetate, organic solvent or mixture, thermodynamic from solid, isopropyl acetate, read-out: Solubility
  solubility: 103 to 1030 mg/mL (≈ 175 to 1750 mM)
[3]; methanol, organic solvent or mixture, thermodynamic from solid, methanol, read-out: Solubility
  solubility: 99 to 990 mg/mL (≈ 168 to 1680 mM)
[3]; methyl isobutyl, organic solvent or mixture, thermodynamic from solid, methyl isobutyl, read-out: Solubility
  solubility: 99 to 990 mg/mL (≈ 168 to 1680 mM)
[3]; methyl tert-butyl ether, organic solvent or mixture, thermodynamic from solid, methyl tert-butyl ether, read-out: Solubility
  solubility: 102 to 1020 mg/mL (≈ 173 to 1730 mM)
[3]; n-heptane, organic solvent or mixture, thermodynamic from solid, n-heptane, read-out: Solubility
  solubility: < 10.1 mg/mL
[3]; tetrahydrofuran, organic solvent or mixture, thermodynamic from solid, tetrahydrofuran, read-out: Solubility
  solubility: 97 to 970 mg/mL (≈ 164 to 1640 mM)
[3]; toluene, organic solvent or mixture, thermodynamic from solid, toluene, read-out: Solubility
  solubility: 98 to 980 mg/mL (≈ 166 to 1660 mM)
[3]; water, thermodynamic from solid, water, read-out: Solubility
  solubility: < 10 mg/mL

## CCOC(=O)[C@@H]1CC2(CCN(c3cc(O[C@H](c4ccc(Cl)cc4-c4ccccc4)C(F)(F)F)nc(N)n3)CC2)CN1 [ES928-60-3]
[1]
  XRPD 16 hours: Form 3
  XRPD 4 days: Form 3

## CCOC(=O)[C@@H]1CC2(CCN(c3cc(O[C@H](c4ccc(Cl)cc4-c4ccccc4)C(F)(F)F)nc(N)n3)CC2)CN1 [ES-928-62-4]
[4]; Buffer pH 1.2
  Conc. Actual: 46000 µg/mL

## CCOC(=O)[C@@H]1CC2(CCN(c3cc(O[C@H](c4ccc(Cl)cc4-c4ccccc4)C(F)(F)F)nc(N)n3)CC2)CN1 [EdA-928-63-2]
[4]; Ethanol Abs.
  Conc. Actual: 58000 µg/mL

## CCOC(=O)[C@@H]1CC2(CCN(c3cc(O[C@H](c4ccc(Cl)cc4-c4ccccc4)C(F)(F)F)nc(N)n3)CC2)CN1 [ES-928-62-1]
[4]; buffer pH 1.2, pH 1.2, simulated gastric fluid, thermodynamic from solid, Buffer pH 1.2, read-out: Conc. Actual
  solubility thermodynamic: 49 mg/mL (≈ 83 mM)

## CCOC(=O)[C@@H]1CC2(CCN(c3cc(O[C@H](c4ccc(Cl)cc4-c4ccccc4)C(F)(F)F)nc(N)n3)CC2)CN1 [Compound 1, (S)-ethyl 8-(2-amino-6-((R)-1-(5-chloro-[1,1′-biphenyl]-2-yl)-2,2,2-trifluoroethoxy)pyrimidin-4-yl)-2,8-diazaspiro[4.5]decane-3-carboxylate]
[5]; MTBE/n-heptane 1/1(v/v), 45 °C
  XRPD (1~2 hours): Form 3
  XRPD (19 hours): Form 3
[5]; MTBE/n-heptane 1/4(v/v), 10 °C
  XRPD (1~2 hours): Form 1 +
  XRPD (65 hours): Form 3
[5]; MTBE/n-heptane 1/4(v/v), 45 °C
  XRPD (1~2 hours): Form 1+
  XRPD (19 hours): Form 3
[5]; MTBE/n-heptane 1/5(v/v), 10 °C
  XRPD (1~2 hours): Form 1 +
  XRPD (65 hours): Form 3
[5]; MTBE/n-heptane 1/5(v/v), 45 °C
  XRPD (1~2 hours): Form +
  XRPD (65 hours): Form 3
[6]; EA/n-heptane 1:1, 10 °C, organic solvent or mixture
  solubility: 422 mg/mL (≈ 715 mM)
[6]; EA/n-heptane 1:3, 10 °C, organic solvent or mixture
  solubility: 115 mg/mL (≈ 195 mM)
[6]; EtOH/n-heptane 1:1, 10 °C, organic solvent or mixture
  solubility: 396 mg/mL (≈ 671 mM)
[6]; EtOH/n-heptane 1:3, 10 °C, organic solvent or mixture
  solubility: 192 mg/mL (≈ 326 mM)
[6]; IPA, 10 °C, organic solvent or mixture
  solubility: 79.6 mg/mL (≈ 135 mM)
[6]; IPA, 50 °C, organic solvent or mixture
  solubility: > 518 mg/mL
[6]; MTBE, 10 °C, organic solvent or mixture
  solubility: > 211 mg/mL
[6]; MTBE, 50 °C, organic solvent or mixture
  solubility: > 615 mg/mL
[6]; acetone/n-heptane 1:1, 10 °C, organic solvent or mixture
  solubility: > 589 mg/mL
[6]; acetone/n-heptane 1:3, 10 °C, organic solvent or mixture
  solubility: 208 mg/mL (≈ 353 mM)
[6]; n-butanol, 10 °C, organic solvent or mixture
  solubility: 268 mg/mL (≈ 455 mM)
[6]; n-butanol, 50 °C, organic solvent or mixture
  solubility: > 758 mg/mL
[6]; n-heptane, 50 °C, organic solvent or mixture
  solubility: 9.5 mg/mL (≈ 16.1 mM)
[6]; water, 50 °C
  solubility: 1.2 mg/mL (≈ 2.03 mM)

## CCOC(=O)[C@@H]1CC2(CCN(c3cc(O[C@H](c4ccc(Cl)cc4-c4ccccc4)C(F)(F)F)nc(N)n3)CC2)CN1 [ES928-60-S]
[1]
  XRPD 16 hours: Form 3
  XRPD 4 days: Form 3

## CCOC(=O)[C@@H]1CC2(CCN(c3cc(O[C@H](c4ccc(Cl)cc4-c4ccccc4)C(F)(F)F)nc(N)n3)CC2)CN1 [ES928-60-6]
[1]
  XRPD 16 hours: Form 3
  XRPD 4 days: Form 3

## CCOC(=O)[C@@H]1CC2(CCN(c3cc(O[C@H](c4ccc(Cl)cc4-c4ccccc4)C(F)(F)F)nc(N)n3)CC2)CN1 [ES928-60-4]
[1]
  XRPD 16 hours: Form 3
  XRPD 4 days: Form 3

## CCOC(=O)[C@@H]1CC2(CCN(c3cc(O[C@H](c4ccc(Cl)cc4-c4ccccc4)C(F)(F)F)nc(N)n3)CC2)CN1 [ES928-59-1]
[2]
  pH (2 hours): 8.68
  pH (4 hours): 8.22
  pH (7 hours): 8.05

## CCOC(=O)[C@@H]1CC2(CCN(c3cc(O[C@H](c4ccc(Cl)cc4-c4ccccc4)C(F)(F)F)nc(N)n3)CC2)CN1 [ES928-60-1]
[1]
  XRPD 16 hours: Form 1
  XRPD 4 days: Form 3

## CCOC(=O)[C@@H]1CC2(CCN(c3cc(O[C@H](c4ccc(Cl)cc4-c4ccccc4)C(F)(F)F)nc(N)n3)CC2)CN1 [EdA-928-63-1]
[4]; Ethanol Abs.
  Conc. Actual: 129000 µg/mL

## CCOC(=O)[C@@H]1CC2(CCN(c3cc(O[C@H](c4ccc(Cl)cc4-c4ccccc4)C(F)(F)F)nc(N)n3)CC2)CN1 [ES928-59-3]
[2]
  pH (2 hours): 8.71
  pH (4 hours): 8.65
  pH (7 hours): 8.32
